Data from patent US11584714B2 (priority 2018, dated 2023).
pKi: −log10 of the molar value. Structures can show the parent of a compound that is named as a salt. Where two headings read alike, the source gives them in different places.

Assays:
Format in all cases: biochemical
[1] = target: MASP-2 (CCP1-CCP2-SP) (Homo sapiens (Human), UniProt O00187); assay: biochemical
[2] = target: mMASP-2 (Mus musculus (Mouse), UniProt Q91WP0); assay: Enzymatic inhibition of mMASP-2
[3] = target: human α-thrombin (Homo sapiens (Human), UniProt P00734); assay: Enzymatic assay for thrombin (Boc-VPR-AMC substrate); settings: for pKi: read-out: Thrombin Ki; for Ki: Thrombin Ki (μM)
[4] = selectivity for MASP-2 inhibition versus thrombin
[5] = MASP-2 inhibition versus thrombin

mMASP-2, sequence (Q91WP0 20-685): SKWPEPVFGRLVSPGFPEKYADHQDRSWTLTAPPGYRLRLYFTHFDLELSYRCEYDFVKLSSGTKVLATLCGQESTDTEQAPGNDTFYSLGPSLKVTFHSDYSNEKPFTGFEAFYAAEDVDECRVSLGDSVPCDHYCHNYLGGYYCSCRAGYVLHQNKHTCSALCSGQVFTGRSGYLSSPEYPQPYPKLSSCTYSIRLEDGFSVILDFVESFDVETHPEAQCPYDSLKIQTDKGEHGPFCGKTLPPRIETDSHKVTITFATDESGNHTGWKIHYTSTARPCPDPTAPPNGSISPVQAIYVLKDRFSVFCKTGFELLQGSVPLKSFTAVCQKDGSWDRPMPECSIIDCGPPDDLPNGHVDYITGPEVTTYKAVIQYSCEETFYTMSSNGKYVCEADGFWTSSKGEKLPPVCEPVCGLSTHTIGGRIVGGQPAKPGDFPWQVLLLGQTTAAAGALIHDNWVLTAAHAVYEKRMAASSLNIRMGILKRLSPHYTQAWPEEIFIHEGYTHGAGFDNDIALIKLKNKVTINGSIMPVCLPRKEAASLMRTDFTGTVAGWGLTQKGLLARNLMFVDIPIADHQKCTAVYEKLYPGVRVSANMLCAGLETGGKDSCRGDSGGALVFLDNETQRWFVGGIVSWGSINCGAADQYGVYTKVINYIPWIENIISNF
MASP-2 (CCP1-CCP2-SP), sequence (O00187 445-686): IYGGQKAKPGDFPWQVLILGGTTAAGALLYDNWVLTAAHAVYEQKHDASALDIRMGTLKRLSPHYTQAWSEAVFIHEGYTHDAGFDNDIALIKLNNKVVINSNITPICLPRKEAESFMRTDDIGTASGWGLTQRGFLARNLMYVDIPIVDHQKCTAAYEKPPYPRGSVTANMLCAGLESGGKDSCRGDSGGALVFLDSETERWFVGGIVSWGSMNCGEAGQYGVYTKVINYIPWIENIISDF

With `Cc1nc(N)ccc1CNC(=O)[C@H](C)NC(=O)[C@H]1C[C@@H](c2ccccc2)CCN1CC(=O)O` [compound 1398, 2-((2R,4S)-2-(((S)-1-(((6-Amino-2-methylpyridin-3-yl)methyl)amino)-1-oxopropan-2-yl)carbamoyl)-4-phenylpiperidin-1-yl)acetic acid Trifluoroacetate salt] the pKi ([1]; read-out: MASP-2 Ki) was > 6.30, the pKi ([2]; read-out: mMASP-2 Ki) was 5.60 to 6.30 and the pKi [3] was < 4.60.

For `Cc1nc(N)ccc1CNC(=O)[C@H](C)NC(=O)[C@@H]1C[C@@H](Cc2ccccc2)CN1` [compound 1282, (2S,4R)—N—((S)-1-(((6-Amino-2-methylpyridin-3-yl)methyl)amino)-1-oxopropan-2-yl)-4-benzylpyrrolidine-2-carboxamide], the pKi [1] was 4.60 to 5.00, the pKi ([2]; read-out: mMASP-2 Ki) was < 4.60 and the pKi [3] was < 4.60.

With `C[C@H](NC(=O)[C@@H](CCc1ccccc1)NCCCc1cccc(O)c1)C(=O)NCc1ccc(C(=N)N)cc1` [compound 1312, (R)—N—((S)-1-((4-Carbamimidoylbenzyl)amino)-1-oxopropan-2-yl)-2-((3-(3-hydroxyphenyl)propyl)amino)-4-phenylbutanamide Di-trifluoroacetate salt] the pKi ([1]; read-out: MASP-2 Ki) was > 6.30, the “MASP-2 vs. thrombin selectivity” value [1, 4] was “* (≥1.0 to <5.0-fold)” and the pKi ([2]; read-out: mMASP-2 Ki) was > 6.30. The pKi [3] was > 6.30.

`Cc1nc(N)ccc1CNC(=O)[C@H](C)NC(=O)[C@H]1C[C@H](Cc2cccc(C(F)(F)F)c2)C(=O)N1` [compound 1320, (2R,4S)—N—((S)-1-(((6-Amino-2-methylpyridin-3-yl)methyl)amino)-1-oxopropan-2-yl)-5-oxo-4-(3-(trifluoromethyl)benzyl)pyrrolidine-2-carboxamide Di-trifluoroacetate salt] was tested, and the pKi ([1]; read-out: MASP-2 Ki) was > 6.30, the “MASP-2 vs. thrombin selectivity” value [1, 4] was “** (≥5.0 to <25-fold)” and the pKi ([2]; read-out: mMASP-2 Ki) was 5.60 to 6.30. For the same molecule, the Ki [3] was 0.5 to 2.5 µM.

With `Cc1nc(N)ccc1CNC(=O)[C@H](C)NC(=O)[C@H]1CC(Cc2ccc(F)cc2)(Cc2ccc(F)cc2)CN1` [compound 1480, (R)—N—((S)-1-(((6-Amino-2-methylpyridin-3-yl)methyl)amino)-1-oxopropan-2-yl)-4,4-bis(4-fluorobenzyl)pyrrolidine-2-carboxamide Di-trifluoroacetate salt] the pKi ([1]; read-out: MASP-2 Ki) was > 6.30, the “MASP-2 vs. thrombin selectivity” value [1, 4] was “**** (≥100-fold)” and the pKi ([2]; read-out: mMASP-2 Ki) was 5.60 to 6.30. For the same molecule, the pKi [3] was < 4.60.

For `COc1cccc(CC[C@@H](N)C(=O)N[C@@H](C)C(=O)NCc2ccc(C(=N)N)cc2)c1` [compound 1075], the “MASP-2 vs. thrombin selectivity” value [1, 5] was “** (5.0 to 25-fold)”, the pKi ([1]; read-out: MASP-2 Ki) was > 6.30 and the pKi ([2]; read-out: mMASP-2 Ki) was > 6.30. The pKi [3] was > 6.30.

In the case of `C[C@H](NC(=O)[C@H]1C[C@H](c2ccccc2)CN1)C(=O)NCc1cnc2[nH]ccc2c1` [compound 1311, (2R,4R)—N—((S)-1-(((1H-Pyrrolo[2,3-b]pyridin-5-yl)methyl)amino)-1-oxopropan-2-yl)-4-phenylpyrrolidine-2-carboxamide Dihydrochloride], the pKi [1] was 5.00 to 5.60, the “MASP-2 vs. thrombin selectivity” value [1, 4] was “* (≥1.0 to <5.0-fold)” and the pKi ([2]; read-out: mMASP-2 Ki) was 5.00 to 5.60. The pKi [3] was < 4.60.

In the case of `C[C@H](NC(=O)[C@H]1C[C@H](c2ccccc2)CN1)C(=O)NCc1cc2cnccc2[nH]1` [compound 1463, (2R,4R)—N—((S)-1-(((1H-Pyrrolo[3,2-c]pyridin-2-yl)methyl)amino)-1-oxopropan-2-yl)-4-phenylpyrrolidine-2-carboxamide Di-trifluoroacetate salt], the pKi ([1]; read-out: MASP-2 Ki) was > 6.30, the pKi ([2]; read-out: mMASP-2 Ki) was > 6.30 and the pKi [3] was < 4.60.

`CC(=O)O/N=C(\N)c1ccc(CNC(=O)[C@H](C)NC(=O)[C@H]2C[C@H](c3ccccc3)CN2)cc1` [compound 1264, (2R,4R)—N—((S)-1-((4-((Z)-N′-Acetoxycarbamimidoyl)benzyl)amino)-1-oxopropan-2-yl)-4-phenylpyrrolidine-2-carboxamide] was tested, and the pKi [1] was 5.00 to 5.60, the pKi [2] was 4.60 to 5.00 and the pKi [3] was < 4.60.

In the case of `Cc1nc(N)ccc1CNC(=O)[C@H](C)NC(=O)[C@H]1C[C@H](C2(c3ccccc3)CC2)CN1` [compound 1481, (2R,4R)—N—((S)-1-(((6-Amino-2-methylpyridin-3-yl)methyl)amino)-1-oxopropan-2-yl)-4-(1-phenylcyclopropyl)pyrrolidine-2-carboxamide Di-trifluoroacetate salt], the pKi ([1]; read-out: MASP-2 Ki) was > 6.30, the “MASP-2 vs. thrombin selectivity” value [1, 4] was “**** (≥100-fold)” and the pKi ([2]; read-out: mMASP-2 Ki) was > 6.30. For the same molecule, the Ki [3] was 2.5 to 10 µM.

`CCc1cccc([C@H]2CN[C@@H](C(=O)N[C@@H](C)C(=O)NCc3ccc(N)nc3C)C2)c1` [compound 1303, (2R,4S)—N—((S)-1-(((6-Amino-2-methylpyridin-3-yl)methyl)amino)-1-oxopropan-2-yl)-4-(3-ethylphenyl)pyrrolidine-2-carboxamide Dihydrochloride] was tested, and the pKi ([1]; read-out: MASP-2 Ki) was > 6.30, the “MASP-2 vs. thrombin selectivity” value [1, 4] was “*** (≥25 to <100-fold)” and the pKi ([2]; read-out: mMASP-2 Ki) was 5.00 to 5.60. The pKi [3] was < 4.60.

For `Cc1cccc([C@@H]2CCN[C@@H](C(=O)N[C@@H](C)C(=O)NCc3ccc(C(=N)N)cc3)C2)c1` [compound 1241, (2R,4R)—N—((S)-1-((4-Carbamimidoylbenzyl)amino)-1-oxopropan-2-yl)-4-(m-tolyl)piperidine-2-carboxamide], the pKi ([1]; read-out: MASP-2 Ki) was > 6.30, the “MASP-2 vs. thrombin selectivity” value [1, 4] was “* (≥1.0 to <5.0-fold)” and the pKi ([2]; read-out: mMASP-2 Ki) was > 6.30. For the same molecule, the pKi [3] was > 6.30.

`C[C@H](NC(=O)[C@H]1C[C@H](c2ccccc2)CN1)C(=O)NCc1cc(Br)cc2cn[nH]c12` [compound 1462, (2R,4R)—N—((S)-1-(((5-bromo-1H-indazol-7-yl)methyl)amino)-1-oxopropan-2-yl)-4-phenylpyrrolidine-2-carboxamide] was tested, and the pKi [1] was 5.60 to 6.30, the “MASP-2 vs. thrombin selectivity” value [1, 4] was “** (≥5.0 to <25-fold)” and the pKi ([2]; read-out: mMASP-2 Ki) was 5.00 to 5.60. The Ki [3] was 10 to 25 µM.

`Cc1nc2cc(CNC(=O)[C@H](C)NC(=O)[C@H]3C[C@H](c4ccccc4)CN3)cc(Cl)c2[nH]1` [compound 1418, (2R,4R)—N—((S)-1-(((7-Chloro-2-methyl-1H-benzo[d]imidazol-5-yl)methyl)amino)-1-oxopropan-2-yl)-4-phenylpyrrolidine-2-carboxamide Trifluoroacetate salt] was tested, and the pKi [1] was 5.00 to 5.60, the pKi ([2]; read-out: mMASP-2 Ki) was 4.60 to 5.00 and the pKi [3] was < 4.60.

With `Cc1cc(C[C@@H]2CN[C@@H](C(=O)N[C@@H](C)C(=O)NCc3cnc4c(c3)c(Cl)cn4C)C2)ccn1` [compound 1468, Trifluoroacetate] the pKi ([1]; read-out: MASP-2 Ki) was > 6.30, the “MASP-2 vs. thrombin selectivity” value [1, 4] was “**** (≥100-fold)” and the pKi ([2]; read-out: mMASP-2 Ki) was > 6.30. For the same molecule, the pKi [3] was < 4.60.

With `C[C@H](NC(=O)[C@H]1C[C@H](Cc2ccc(-c3ccccc3)cc2)CN1)C(=O)NCc1cnc2[nH]cc(Cl)c2c1` [compound 1356, (2R,4S)-4-([1,1′-Biphenyl]-4-ylmethyl)-N-((S)-1-(((3-chloro-1H-pyrrolo[2,3-b]pyridin-5-yl)methyl)amino)-1-oxopropan-2-yl)pyrrolidine-2-carboxamide Di-trifluoroacetate salt] the pKi ([1]; read-out: MASP-2 Ki) was > 6.30, the “MASP-2 vs. thrombin selectivity” value [1, 4] was “**** (≥100-fold)” and the pKi ([2]; read-out: mMASP-2 Ki) was > 6.30. The pKi [3] was < 4.60.

`C[C@H](NC(=O)[C@H]1C[C@H](c2ccccc2)CN1)C(=O)NCc1ccn2ccnc2c1` [compound 1366, (2R,4R)—N—((S)-1-((Imidazo[1,2-a]pyridin-7-ylmethyl)amino)-1-oxopropan-2-yl)-4-phenylpyrrolidine-2-carboxamide Dihydrochloride] was tested, and the pKi [1] was 5.00 to 5.60, the pKi ([2]; read-out: mMASP-2 Ki) was 5.00 to 5.60 and the pKi [3] was < 4.60.

In the case of `C[C@H](NC(=O)[C@@H](CCc1ccccc1)NCCc1cccc(O)c1)C(=O)NCc1ccc(C(=N)N)cc1` [compound 1330, (R)—N—((S)-1-((4-Carbamimidoylbenzyl)amino)-1-oxopropan-2-yl)-2-((3-hydroxyphenethyl)amino)-4-phenylbutanamide Di-trifluoroacetate salt], the pKi ([1]; read-out: MASP-2 Ki) was > 6.30, the “MASP-2 vs. thrombin selectivity” value [1, 4] was “*** (≥25 to <100-fold)” and the pKi ([2]; read-out: mMASP-2 Ki) was > 6.30. The pKi [3] was > 6.30.

`Cc1nc(N)ccc1CNC(=O)[C@H](C)NC(=O)[C@H]1C[C@H](Cc2ccc(-c3ccccc3)cc2)CN1` [compound 1351, (2R,4S)-4-([1,1′-Biphenyl]-4-ylmethyl)-N-((S)-1-(((6-amino-2-methylpyridin-3-yl)methyl)amino)-1-oxopropan-2-yl)pyrrolidine-2-carboxamide Dihydrochloride] was tested, and the pKi ([1]; read-out: MASP-2 Ki) was > 6.30, the “MASP-2 vs. thrombin selectivity” value [1, 4] was “**** (≥100-fold)” and the pKi ([2]; read-out: mMASP-2 Ki) was > 6.30. For the same molecule, the pKi [3] was < 4.60.

With `C[C@H](NC(=O)[C@@H](CCc1ccccc1)NCc1ccccc1)C(=O)NCc1ccc(C(=N)N)cc1` [compound 1134] the “MASP-2 vs. thrombin selectivity” value [1, 5] was “−− (less than 1.0-fold)”, the pKi ([1]; read-out: MASP-2 Ki) was > 6.30 and the pKi ([2]; read-out: mMASP-2 Ki) was > 6.30. The pKi [3] was > 6.30.

With `Cc1cc(C)cc(CC[C@@H](N)C(=O)N[C@@H](C)C(=O)NCc2ccc(C(=N)N)cc2)c1` [compound 1073] the “MASP-2 vs. thrombin selectivity” value [1, 5] was “** (5.0 to 25-fold)”, the pKi ([1]; read-out: MASP-2 Ki) was > 6.30 and the pKi ([2]; read-out: mMASP-2 Ki) was > 6.30. For the same molecule, the pKi [3] was > 6.30.

With `C[C@H](NC(=O)[C@H]1C[C@H](c2ccccc2)CN1)C(=O)NCc1cc2c(Br)cncc2[nH]1` [compound 1493, (2R,4R)—N—((S)-1-(((4-Bromo-1H-pyrrolo[2,3-c]pyridin-2-yl)methyl)amino)-1-oxopropan-2-yl)-4-phenylpyrrolidine-2-carboxamide Di-trifluoroacetate salt] the pKi [1] was 4.60 to 5.00, the “MASP-2 vs. thrombin selectivity” value [1, 4] was “* (≥1.0 to <5.0-fold)” and the pKi ([2]; read-out: mMASP-2 Ki) was < 4.60. It also gave a Ki [3] of 10 to 25 µM.

In the case of `C[C@H](NC(=O)[C@H](N)CCc1ccccc1)C(=O)NCc1ccc(CN)nc1` [compound 1280, (R)-2-Amino-N—((S)-1-(((6-(aminomethyl)pyridin-3-yl)methyl)amino)-1-oxopropan-2-yl)-4-phenylbutanamide], the pKi [1] was 5.00 to 5.60, the pKi ([2]; read-out: mMASP-2 Ki) was 4.60 to 5.00 and the pKi [3] was < 4.60.

In the case of `Cc1nc(N)ccc1CNC(=O)[C@H](C)NC(=O)c1cc(Cc2ccccc2)c[nH]1` [compound 1467, (S)—N-(1-(((6-Amino-2-methylpyridin-3-yl)methyl)amino)-1-oxopropan-2-yl)-4-benzyl-1H-pyrrole-2-carboxamide trifluoroacetic acid], the pKi ([1]; read-out: MASP-2 Ki) was > 6.30, the “MASP-2 vs. thrombin selectivity” value [1, 4] was “**** (≥100-fold)” and the pKi ([2]; read-out: mMASP-2 Ki) was 5.60 to 6.30. For the same molecule, the pKi [3] was < 4.60.
